Among the data in US20060009493A1, “Indolinone hydrazides as c-Met inhibitors” (Sugen, Inc., priority 2003, published 2006) are IC50 values, retold here.

In this experiment the target is T1, GST fusion protein containing the Met kinase domain (Homo sapiens, UniProt P08581).
T1 construct: Purified GST fusion protein containing the Met kinase domain, Sugen, Inc
T1 sequence (P08581 1078-1345 limits assumed): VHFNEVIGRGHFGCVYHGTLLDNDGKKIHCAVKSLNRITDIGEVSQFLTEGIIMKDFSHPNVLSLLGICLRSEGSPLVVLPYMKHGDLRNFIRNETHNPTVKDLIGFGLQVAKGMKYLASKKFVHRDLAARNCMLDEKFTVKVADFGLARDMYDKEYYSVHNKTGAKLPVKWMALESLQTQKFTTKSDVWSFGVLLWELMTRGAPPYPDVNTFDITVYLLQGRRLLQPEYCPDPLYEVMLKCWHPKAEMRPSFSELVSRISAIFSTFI
Briefly: MET Transphosphorylation Assay (ELISA, poly(Glu,Tyr) 4:1 substrate). The note with it: met transphosphorylation of poly(glutamic acid:tyrosine 4:1) substrate; two values in a cell separated by '/'. Type of experiment: biochemical. Put shortly:
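Poly(Glu-Tyr)-coated wells received the GST-Met kinase domain (10 ng/well) with compound in DMSO for 15 minutes. The reaction was started with ATP/MnCl2 in HEPES pH 7.5 buffer with vanadate, run 5 minutes, and stopped with EDTA. Phosphotyrosine was detected by anti-pTyr antibody, HRP secondary and ABTS/H2O2.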
(ELISA stands for enzyme-linked immunosorbent assay.)
As for `O=C(Cc1ccc(O)c(Cl)c1)N/N=C1\C(=O)Nc2ccc(C(=O)N3CCC(NC4CC4)CC3)c(Cl)c21` [Example I-38, (3-Chloro-4-hydroxy-phenyl)-acetic acid [(3Z)-4-chloro-5-(4-cyclopropylamino-piperidine-1-carbonyl)-2-oxo-1,2-dihydro-indol-3-ylidene]-hydrazide], the IC50 amounted to 26 nM.
Compound `O=C(Cc1ccc(O)cc1)N/N=C1\C(=O)Nc2ccc(Br)c(-c3cccc(F)c3)c21` [Example I-13, (4-Hydroxy-phenyl)-acetic acid [(3Z)-5-bromo-4-(3-fluoro-phenyl)-2-oxo-1,2-dihydro-indol-3-ylidene]-hydrazide] returned an IC50 of 1060 nM. This IC50 is about 41-fold higher than that of the compound before.
Turning to `O=C1Nc2ccccc2/C1=N/NC(=O)C1Cc2ccccc2C1` [Example I-59, Indan-2-carboxylic acid [(3Z)-2-oxo-1,2-dihydro-indol-3-ylidene)-hydrazide], the IC50 is above 20000 nM.
`O=C(Cc1ccncc1)N/N=C1\C(=O)Nc2c(Cl)ccc(Cl)c21` [II-66, Pyridin-4-yl-acetic acid [(3Z)-4,7-dichloro-2-oxo-1,2-dihydro-indol-3-ylidene]-hydrazide] registered an IC50 of 13 nM.
`CC(C(=O)N/N=C1\C(=O)Nc2ccccc21)c1ccc(O)c(Br)c1` (stereo not drawn) [II-103, 2-(3-Bromo-4-hydroxy-phenyl)-propionic acid [(3Z)-2-oxo-1,2-dihydro-indol-3-ylidene]-hydrazide] registered an IC50 of 180 nM. Compared with the last compound, the IC50 is about 14-fold higher.
The same measure for `O=C(Cc1ccc(O)c(O)c1)N/N=C1\C(=O)Nc2ccccc21` [II-64, (3,4-Dihydroxy-phenyl)-acetic acid [(3E)-2-oxo-1,2-dihydro-indol-3-ylidene]-hydrazide]: above 20000 nM.
The compound `O=C(Cc1ccc(OCCN2CCCC2)cc1)N/N=C1\C(=O)Nc2ccccc21` [Example I-1] gave an IC50 of 10400 nM.
The same measure for `CC(C(=O)N/N=C1\C(=O)Nc2ccc(C(=O)N3CCC[C@@H]3CN3CCCC3)c(Cl)c21)c1ccc(F)cc1` (stereo partly drawn) [Example I-40, 2-(4-Fluoro-phenyl)-propionic acid [(3Z)-4-chloro-2-oxo-5-[(2R)-(2-pyrrolidin-1-ylmethyl-pyrrolidine-1-carbonyl)]-1,2-dihydro-indol-3-ylidene]-hydrazide]: 430 nM; for `Cc1ccc(Cl)c2c1NC(=O)/C2=N\NC(=O)C(C)c1ccc(F)cc1` (stereo not drawn) [II-114, 2-(4-Fluoro-phenyl)-propionic acid [(3Z)4-chloro-7-methyl-2-oxo-1,2-dihydro-indol-3-ylidene]-hydrazide]: 200 nM; for `COc1cc(CC(=O)N/N=C2\C(=O)Nc3c(Cl)ccc(Cl)c32)cc(OC)c1O` [II-100, (4-Hydroxy-3,5-dimethoxy-phenyl)-acetic acid [(3Z)-4,7-dichloro-2-oxo-1,2-dihydro-indol-3-ylidene)-hydrazide]: above 20000 nM.
As for `Cc1cc(C)c2c(c1)/C(=N/NC(=O)Cc1ccc(O)cc1)C(=O)N2` [II-26, (4-Hydroxy-phenyl)-acetic acid [(3Z)-5,7-dimethyl-2-oxo-1,2-dihydro-indol-3-ylidene]-hydrazide], the midpoint of inhibition, the IC50, lay at 20 nM.
Compound `COc1cccc(CC(=O)N/N=C2\C(=O)Nc3ccccc32)c1` [II-12, (3-Methoxy-phenyl)-acetic acid [(3Z)-2-oxo-1,2-dihydro-indol-3-ylidene]-hydrazide] came in with an IC50 of 7200 nM.
Under `CSc1ccc(CC(=O)N/N=C2\C(=O)Nc3ccccc32)cc1` [Example I-19, (4-Methylsulfanyl-phenyl)-acetic acid [(3Z]-2-oxo-1,2-dihydro-indol-3-ylidene]-hydrazide] stands above 20000 nM; under `COc1ccc(CC(=O)N/N=C2\C(=O)Nc3c(C)ccc(C)c32)cc1C#N` [II-107, (3-Cyano-4-methoxy-phenyl)-acetic acid [(3Z)-4,7-dimethyl-2-oxo-1,2-dihydro-indol-3-ylidene]-hydrazide], above 20000 nM; under `O=C(Cc1ccc(O)c(O)c1)N/N=C1\C(=O)Nc2ccccc21` [II-41, (3,4-Dihydroxy-phenyl)-acetic acid [(3Z)-2-oxo-1,2-dihydro-indol-3-ylidene]-hydrazide], 1770 nM.

In general, IC50 refers to the concentration at which inhibition is half-maximal. A high value points to weaker potency.
